The subject of this test is P388. Description: In vivo cytotoxicity against mouse P388 cells up to 1.4 mg/kg relative to control. In kind it is functional, organism-based. On the set-up: dose 1.4 mg/kg.

The structures appear in SMILES notation. The source made the active and inactive calls. No cut-off for these calls is given here.

Regarding `O=C1NC(=O)[C@@]2(CC[C@@H](O)C2)c2ccncc21`, the result was inactive.

The values are drawn from ChEMBL document CHEMBL1151356, “An investigation of the antitumor activity of Sesbania drummondii” (1981).
